# According to patent publication US20230399312A1, “SUBSTITUTED PYRIMIDINES AND METHODS OF USE” (THERAVANCE BIOPHARMA R&D IP, LLC, priority 2020, published 2023):
# Assays:
# [1] = biological target: T1, recombinant human ALK5 (TGF-βR1) protein (Homo sapiens, UniProt P36897); assay: Biochemical ALK5 (TGF-βR1) assay to measure pKi (LANCE Ultra ULight kinase assay); conditions: apparent pKi, converted from pIC50 by Cheng-Prusoff
# T1 construct: purchased Life Technologies PR9075A
# T1 sequence (P36897 34-503): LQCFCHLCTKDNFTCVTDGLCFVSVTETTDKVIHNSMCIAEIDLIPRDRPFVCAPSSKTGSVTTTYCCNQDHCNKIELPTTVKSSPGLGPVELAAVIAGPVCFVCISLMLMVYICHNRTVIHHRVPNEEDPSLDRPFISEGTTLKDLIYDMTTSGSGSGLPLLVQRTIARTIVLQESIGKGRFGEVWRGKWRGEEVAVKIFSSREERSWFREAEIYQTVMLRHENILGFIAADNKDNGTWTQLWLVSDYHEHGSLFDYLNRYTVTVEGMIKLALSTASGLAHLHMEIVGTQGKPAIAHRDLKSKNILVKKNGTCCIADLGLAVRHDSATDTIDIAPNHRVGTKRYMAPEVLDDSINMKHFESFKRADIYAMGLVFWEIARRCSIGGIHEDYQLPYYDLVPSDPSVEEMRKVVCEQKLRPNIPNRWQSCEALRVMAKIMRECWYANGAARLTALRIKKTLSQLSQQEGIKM
# Method in brief: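 Enzyme preincubated with compound for 60 min at room temperature, then reacted with ATP (125 μM as 5× stock) for 60 min at 37 °C. Stopped with EDTA plus Eu-anti-phospho-Topoisomerase 2-alpha (Thr1342) antibody and read by TR-FRET at 665 nm. pIC50 from a 4-parameter fit, converted to pKi by Cheng-Prusoff.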
# [2] = system: TGF-β-stimulated SMAD3 phosphorylation in BEAS-2B cells; assay: Cellular ALK5 potency assay, inhibition of TGF-β stimulated pSMAD3 formation in BEAS-2B cells; assay type: cell-based; conditions: Homo sapiens, pSMAD3, TGF-β 10 ng/mL, read-out: BEAS2B pIC50 (converted)
# Method in brief: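 Human lung epithelial BEAS-2B cells were preincubated 1 h at 37 °C with compound in HBSS/HEPES/1% BSA, then stimulated 30 min with 10 ng/mL TGF-β. pSMAD3 in lysates was quantified by AlphaLISA relative to untreated stimulated cells; reported as pIC50.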
SMILES,Ki [1] [nM],IC50 [2] [nM]
"Cc1cccc(-c2nccc(Nc3ccnc(Nc4ccc(N5CCOCC5)cc4O)n3)n2)n1 [Compound 410, 2-[[4-[[2-(6-methyl-2-pyridyl)pyrimidin-4-yl]amino]pyrimidin-2-yl]amino]-5-morpholino-phenol]",3.98 to 31.6,25.1 to 158
"COC(=O)CC1CN(Cc2cccc(Nc3nccc(Nc4ccnc(-c5cccc(C)n5)n4)n3)c2)CCN1 (stereo not shown) [Compound 411, methyl 2-[4-[[3-[[4-[[2-(6-methyl-2-pyridyl)pyrimidin-4-yl]amino]pyrimidin-2-yl]amino]phenyl]methyl]piperazin-2-yl]acetate]",0.0398 to 0.316,25.1 to 158
"Fc1ccc(Cl)cc1-c1nccc(Nc2ccnc(Nc3ccc(N4CCC(N5CCCC5)CC4)cc3)n2)n1 [Compound 412, N4-[2-(5-chloro-2-fluoro-phenyl)pyrimidin-4-yl]-N2-[4-(4-pyrrolidin-1-yl-1-piperidyl)phenyl]pyrimidine-2,4-diamine]",0.0398 to 0.316,25.1 to 158
"Cc1cccc(-c2nccc(Nc3ccnc(Nc4ccc(NS(=O)(=O)C5CCNC5)cc4)n3)n2)n1 (stereo not shown) [Compound 413, N-[4-[[4-[[2-(6-methyl-2-pyridyl)pyrimidin-4-yl]amino]pyrimidin-2-yl]amino]phenyl]pyrrolidine-3-sulfonamide]",0.398 to 3.16,200 to 1260
"Cc1cccc(-c2nccc(Nc3ccnc(Nc4ccc(CN5CCC(C(=O)O[C@@H]6CCN(C)C6)CC5)cc4)n3)n2)n1 [Compound 414, (R)-1-methylpyrrolidin-3-yl 1-(4-((4-((2-(6-methylpyridin-2-yl)pyrimidin-4-yl)amino)pyrimidin-2-yl)amino)benzyl)piperidine-4-carboxylate]",0.0398 to 0.316,25.1 to 158
"CN(C)C1CCN(c2ccc(Nc3nccc(Nc4ccnc(-c5cc(Cl)ccc5F)n4)n3)cc2)CC1 [Compound 415, N4-[2-(5-chloro-2-fluoro-phenyl)pyrimidin-4-yl]-N2-[4-[4-(dimethylamino)-1-piperidyl]phenyl]pyrimidine-2,4-diamine]",0.0398 to 0.316,25.1 to 158
"Cc1cccc(-c2nccc(Nc3ccnc(Nc4ccc(N(C)C(=O)C5CCNCC5)cc4)n3)n2)n1 [Compound 416, N-methyl-N-[4-[[4-[[2-(6-methyl-2-pyridyl)pyrimidin-4-yl]amino]pyrimidin-2-yl]amino]phenyl]piperidine-4-carboxamide]",0.0398 to 0.316,200 to 1260
"Cc1cccc(-c2nccc(Nc3ccnc(Nc4ccc(CN5CCS(=O)(=O)CC5)cc4)n3)n2)n1 [Compound 417, N2-[4-[(1,1-dioxo-1,4-thiazinan-4-yl)methyl]phenyl]-N4-[2-(6-methyl-2-pyridyl)pyrimidin-4-yl]pyrimidine-2,4-diamine]",0.0398 to 0.316,25.1 to 158
"Cc1cccc(-c2nccc(Nc3ccnc(Nc4ccc(N5CCNCC5)cc4)n3)n2)n1 [Compound 418, N4-(2-(6-methylpyridin-2-yl)pyrimidin-4-yl)-N2-(4-(piperazin-1-yl)phenyl)pyrimidine-2,4-diamine]",0.0398 to 0.316,25.1 to 158
"Cc1cccc(-c2nccc(Nc3ccnc(Nc4cc(NC(=O)C5CCNCC5)c5c(c4)OCCO5)n3)n2)n1 [Compound 419, N-[7-[[4-[[2-(6-methyl-2-pyridyl)pyrimidin-4-yl]amino]pyrimidin-2-yl]amino]-2,3-dihydro-1,4-benzodioxin-5-yl]piperidine-4-carboxamide]",0.0398 to 0.316,25.1 to 158
"Cc1cccc(-c2nccc(Nc3ccnc(Nc4cccc(S(=O)(=O)NCCN(C)C)c4)n3)n2)n1 [Compound 420, N-[2-(dimethylamino)ethyl]-3-[[4-[[2-(6-methyl-2-pyridyl)pyrimidin-4-yl]amino]pyrimidin-2-yl]amino]benzenesulfonamide]",0.0398 to 0.316,25.1 to 158
"Cc1cccc(-c2nccc(Nc3ccnc(Nc4ccc(C)c(N)c4)n3)n2)n1 [Compound 421, N2-(3-amino-4-methyl-phenyl)-N4-[2-(6-methyl-2-pyridyl)pyrimidin-4-yl]pyrimidine-2,4-diamine]",0.0398 to 0.316,≤ 20
"Cc1cccc(-c2nccc(Nc3ccnc(Nc4ccc(N5CCN[C@@H](C(=O)O)C5)cc4)n3)n2)n1 [Compound 422, (2R)-4-[4-[[4-[[2-(6-methyl-2-pyridyl)pyrimidin-4-yl]amino]pyrimidin-2-yl]amino]phenyl]piperazine-2-carboxylic acid]",0.0398 to 0.316,200 to 1260
"Cc1cccc(-c2nccc(Nc3ccnc(Nc4cccc(C(=O)O)c4)n3)n2)n1 [Compound 423, 3-[[4-[[2-(6-methyl-2-pyridyl)pyrimidin-4-yl]amino]pyrimidin-2-yl]amino]benzoic acid]",0.398 to 3.16,1580 to 10000
"Cc1cccc(-c2nccc(Nc3ccnc(Nc4cccc(CN5C6CCC5CNC6)c4)n3)n2)n1 [Compound 424, N2-[3-(3,8-diazabicyclo[3.2.1]octan-8-ylmethyl)phenyl]-N4-[2-(6-methyl-2-pyridyl)pyrimidin-4-yl]pyrimidine-2,4-diamine]",0.0398 to 0.316,25.1 to 158
"Cc1cccc(-c2nccc(Nc3ccnc(Nc4ccc(-c5cnn(C(C)C)c5)cc4)n3)n2)n1 [Compound 425, N2-[4-(1-isopropylpyrazol-4-yl)phenyl]-N4-[2-(6-methyl-2-pyridyl)pyrimidin-4-yl]pyrimidine-2,4-diamine]",0.398 to 3.16,25.1 to 158

# More lines, main results first:
Ki [1] [nM],SMILES,IC50 [2] [nM]
3.98 to 31.6,"Fc1ccc(-c2nccc(Nc3ccnc(Nc4ccc(N5CCOCC5)cc4)n3)n2)nc1C(F)F [Compound 426, N4-(2-(6-(difluoromethyl)-5-fluoropyridin-2-yl)pyrimidin-4-yl)-N2-(4-morpholinophenyl)pyrimidine-2,4-diamine]",25.1 to 158
0.0398 to 0.316,"CNCCNS(=O)(=O)c1ccc(Nc2nccc(Nc3ccnc(-c4cccc(C)n4)n3)n2)cc1 [Compound 427, N-[2-(methylamino)ethyl]-4-[[4-[[2-(6-methyl-2-pyridyl)pyrimidin-4-yl]amino]pyrimidin-2-yl]amino]benzenesulfonamide]",25.1 to 158
0.0398 to 0.316,"Cc1cccc(-c2nccc(Nc3ccnc(Nc4ccc(CN5CCC[C@@H](C(=O)O)C5)cc4)n3)n2)n1 [Compound 428, (3R)-1-[[4-[[4-[[2-(6-methyl-2-pyridyl)pyrimidin-4-yl]amino]pyrimidin-2-yl]amino]phenyl]methyl] piperidine-3-carboxylic acid]",200 to 1260
0.0398 to 0.316,"Cc1cccc(-c2nccc(Nc3ccnc(Nc4ccc(N5CCN(C6CCNC6)CC5)cc4)n3)n2)n1 (stereo not shown) [Compound 429, N4-[2-(6-methyl-2-pyridyl)pyrimidin-4-yl]-N2-[4-(4-pyrrolidin-3-ylpiperazin-1-yl)phenyl]pyrimidine-2,4-diamine]",200 to 1260
0.0398 to 0.316,"Cc1cccc(-c2nccc(Nc3ccnc(Nc4cccc(S(=O)(=O)NCCN)c4)n3)n2)n1 [Compound 430, N-(2-aminoethyl)-3-[[4-[[2-(6-methyl-2-pyridyl)pyrimidin-4-yl]amino]pyrimidin-2-yl]amino]benzenesulfonamide]",25.1 to 158
0.0398 to 0.316,"COc1ccc(Nc2nccc(Nc3ccnc(-c4cccc(C)n4)n3)n2)cc1CN1C[C@@H](C)N[C@@H](C)C1 [Compound 431, N2-[4-methoxy-3-[[rac-(3R,5S)-3,5-dimethylpiperazin-1-yl]methyl]phenyl]-N4-[2-(6-methyl-2-pyridyl)pyrimidin-4-yl]pyrimidine-2,4-diamine]",25.1 to 158
0.0398 to 0.316,"Cc1cccc(-c2nccc(Nc3ccnc(Nc4ccc(N5CCC(N(C)Cc6ccccc6)CC5)cc4)n3)n2)n1 [Compound 432, N2-[4-[4-[benzyl(methyl)amino]-1-piperidyl]phenyl]-N4-[2-(6-methyl-2-pyridyl)pyrimidin-4-yl]pyrimidine-2,4-diamine]",25.1 to 158
0.0398 to 0.316,"Cc1cccc(-c2nccc(Nc3ccnc(Nc4ccc(N5CCCC(C(=O)OCC6CNC6)C5)cc4)n3)n2)n1 (stereo not shown) [Compound 433, azetidin-3-ylmethyl 1-[4-[[4-[[2-(6-methyl-2-pyridyl)pyrimidin-4-yl]amino]pyrimidin-2-yl]amino]phenyl]piperidine-3-carboxylate]",25.1 to 158
0.0398 to 0.316,"Cc1cccc(-c2nccc(Nc3ccnc(Nc4ccc(C(=O)N5CCN(C)CC5)cc4)n3)n2)n1 [Compound 434, (4-methylpiperazin-1-yl)-[4-[[4-[[2-(6-methyl-2-pyridyl)pyrimidin-4-yl]amino]pyrimidin-2-yl]amino]phenyl]methanone]",25.1 to 158
0.0398 to 0.316,"Cc1cccc(-c2nccc(Nc3ccnc(Nc4ccc(NC(=O)N5C[C@@H](C)N[C@@H](C)C5)cc4)n3)n2)n1 [Compound 435, rac-(3S,5R)-3,5-dimethyl-N-[4-[[4-[[2-(6-methyl-2-pyridyl)pyrimidin-4-yl]amino]pyrimidin-2-yl]amino]phenyl]piperazine-1-carboxamide]",25.1 to 158
